Measurements: US20240122899A1, “COMPOSITION FOR STIMULATING IMMUNE CELL METABOLISM” (SUNTORY HOLDINGS LIMITED, priority 2021, published 2024)

Columns and labels:
[1] = mice orally administered, versus mice not administered; cited from earlier work
[2] = test system: IL-6, IL-12, IL-1β, and IL-10; details: absence of the TLR ligand; ergothioneine concentration 0 or 10 mM; cited from earlier work
[3] = test system: human peripheral blood mononuclear cells (PBMCs); assay: Mitochondrial stress test / oxygen consumption rate (XFe96 flux analyzer) in human PBMCs; type: cell-based; details: final concentration of 10 μM, 30 μM, or 100 μM
Description: The effect of the compound (L-ergothioneine) of the present invention on mitochondrial function was analyzed. Ergothioneine was added to human peripheral blood mononuclear cells (PBMCs) under the following conditions. The extracellular oxygen level and pH were measured in real time using an XFe96 flux analyzer (available from Agilent Technologies). XFe technology uses solid-state sensors to simultaneously measure both oxygen consumption rate (OCR) and extracellular acidification rate (ECAR) to determine effects on oxidative phosphorylation (OXPHOS) and glycolysis simultaneously. […] Then, the cells were sequentially exposed to various mitochondrial function inhibitors to evaluate cell metabolism. (Conditions for adding ergothioneine to human PBMCs) Human PBMCs were kept in an XF assay medium (XF RPMI1640 medium). Here, L-ergothioneine was adjusted to a final concentration of 0, 10, 30, or 100 μM. The cells (30,000 cells/50 μL/well) were seeded onto an XF96-well cell culture plate coated with PDL and were centrifuged at 200 g for one minute so that the cells were adhered to the plate. After culturing at 37° C. in the absence of CO2 for 20 minutes, the XF assay medium (130 μL) was added gently, followed by further culturing at 37° C. in the absence of CO2 for 40 minutes. The following mitochondrial stress test was performed on the obtained human PBMCs to which ergothioneine was added. An XF Mit Stress Kit (available from Agilent Technologies) was used for the experiment. […] The results obtained are shown in FIG. 1A (basal respiration), FIG. 1B (ATP production), and FIG. 1C (maximum respiration) to facilitate understanding of a possible mechanism of mitochondria metabolism. […] FIGS. 1A to 1C show the resulting values expressed as mean±standard deviation. A significance test was performed by Dunnett's test (test by multiple comparison assuming equal variance, p-value) using an Excel analysis tool to obtain test results relative to the final concentration (0 μM) of ergothioneine (*: p<0.05, **: p<0.01).

Q: Which results are given for C[N+](C)(C)[C@@H](Cc1c[nH]c(=S)[nH]1)C(=O)[O-] [ergothioneine, L-ergothioneine]?
A: peritesticular fat weight [1]: lower; triglyceride (neutral fat) level in plasma [1]: lower; detection of IL-6, IL-12, IL-1β, and IL-10 [2]: none of IL-6, IL-12, IL-1β, and IL-10 was detected; oxygen consumption rate (OCR) of human PBMCs over time ([3]; FIG. 2): increase; OCR related to basal respiration (mitochondrial basal respiration) ([3]; relative to 0 μM, FIG. 1A): significant increase; OCR related to ATP-related respiration (mitochondrial ATP production) ([3]; relative to 0 μM, FIG. 1B): significant increase; OCR related to maximum respiration (mitochondrial maximum respiration) ([3]; relative to 0 μM, FIG. 1C): significant increase
